Source: patent US12391679B2, “Benzamide-substituted bicyclic imidazo- and pyrazolo-fused -pyridine, -pyrimide, and -pyridazine compounds for treatment of inflammatory diseases” (ONCO3R Therapeutics BV, priority 2019, dated 2025)

What was measured:
Type in all cases: biochemical
[1] = molecular target: T1, SIK1 (Homo sapiens, UniProt P57059); assay: ADP-Glo kinase assay, SIK1
T1 construct: purchased Carna Biosciences 02-131
Experimental: (§1) The ADP-Glo™ kinase assay is a luminescent technology assay which measures the ADP formed from a kinase reaction. […] In a second step the kinase reactions are terminated and all the remaining ATP is depleted. In a final step the ADP is converted into ATP and this newly synthesized ATP is measured by using a luciferase/luciferin reaction. The generated light is measured using an Envision plate reader, wherein the luminescent signal obtained positively correlates with the kinase activity.
(§2) 1% DMSO and 10 μM staurosporine final concentrations are used as negative and positive controls.
(§3) 2 μL enzyme-substrate mixture is added to the assay plates.
(§4) The reaction is started by adding 2 μL diluted ATP on the assay plates. Plates are centrifuged for a few seconds at 1000 rpm and gently shaken for […] followed by an incubation at RT for 120 min.
(§5) The reactions are stopped and the unconsumed ATP is depleted by adding 5 μL ADP-Glo Reagent (Promega, Cat #V9120) to the reaction. The plates are centrifuged for a few seconds at 1000 rpm and incubated at RT for 40 min (ATP depletion).
(§6) The ADP is converted to ATP and luciferase and luciferin is introduced to detect ATP by adding 10 μL Kinase Detection Reagent (Promega, Cat #V913B+V914r) to the reaction. The plates are centrifuged for a few seconds at 1000 rpm and incubated at RT for 30 min (ADP detection).
(§7) Luminescence is measured on an Envision plate reader (PerkinElmer Inc.).

[2] = molecular target: T2, SIK2 (Homo sapiens, UniProt Q9H0K1); assay: ADP-Glo kinase assay, SIK2
T2 construct: purchased ThermoFisher Scientific PV4792
T2 sequence (Q9H0K1 whole entry): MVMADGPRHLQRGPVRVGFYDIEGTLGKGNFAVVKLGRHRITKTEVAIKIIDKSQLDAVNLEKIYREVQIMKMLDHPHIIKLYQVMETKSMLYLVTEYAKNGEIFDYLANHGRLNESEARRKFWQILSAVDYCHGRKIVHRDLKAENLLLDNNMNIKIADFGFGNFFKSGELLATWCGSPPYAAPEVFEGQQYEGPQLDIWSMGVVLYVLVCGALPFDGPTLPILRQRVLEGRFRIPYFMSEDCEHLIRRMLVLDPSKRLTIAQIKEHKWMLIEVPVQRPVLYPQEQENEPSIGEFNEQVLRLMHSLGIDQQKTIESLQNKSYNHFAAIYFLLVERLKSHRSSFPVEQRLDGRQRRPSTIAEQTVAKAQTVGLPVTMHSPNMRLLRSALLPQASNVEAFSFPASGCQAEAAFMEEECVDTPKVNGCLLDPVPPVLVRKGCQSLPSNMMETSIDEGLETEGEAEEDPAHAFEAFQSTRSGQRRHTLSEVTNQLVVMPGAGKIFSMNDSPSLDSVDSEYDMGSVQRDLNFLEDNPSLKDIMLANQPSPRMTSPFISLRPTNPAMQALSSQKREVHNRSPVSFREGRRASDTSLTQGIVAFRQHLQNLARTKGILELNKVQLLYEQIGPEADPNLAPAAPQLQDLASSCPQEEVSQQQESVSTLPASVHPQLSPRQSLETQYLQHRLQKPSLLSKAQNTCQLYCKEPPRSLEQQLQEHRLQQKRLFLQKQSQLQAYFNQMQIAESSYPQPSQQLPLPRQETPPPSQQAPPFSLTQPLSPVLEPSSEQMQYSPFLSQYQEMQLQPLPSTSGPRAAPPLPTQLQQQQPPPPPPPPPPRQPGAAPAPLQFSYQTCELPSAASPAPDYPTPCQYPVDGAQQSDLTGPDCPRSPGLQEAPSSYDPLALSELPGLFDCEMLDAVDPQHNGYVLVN
Experimental: as §1, §2, §3, §4, §5, §6, §7

[3] = molecular target: T3, SIK3 (Homo sapiens, UniProt Q9Y2K2); assay: ADP-Glo kinase assay, SIK3
T3 construct: purchased SignalChem S12-11G-100
T3 sequence (Q9Y2K2 59-365 limits assumed): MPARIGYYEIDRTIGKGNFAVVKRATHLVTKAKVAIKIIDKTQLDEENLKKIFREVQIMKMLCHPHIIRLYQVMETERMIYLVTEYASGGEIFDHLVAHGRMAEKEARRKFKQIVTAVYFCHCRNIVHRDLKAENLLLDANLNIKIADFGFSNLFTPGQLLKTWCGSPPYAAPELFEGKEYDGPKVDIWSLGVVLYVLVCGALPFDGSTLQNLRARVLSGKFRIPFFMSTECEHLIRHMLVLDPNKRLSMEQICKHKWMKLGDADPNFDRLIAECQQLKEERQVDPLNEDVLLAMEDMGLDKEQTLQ
Experimental: as §1, §2, §3, §4, §5, §6, §7

T1 sequence (P57059 whole entry): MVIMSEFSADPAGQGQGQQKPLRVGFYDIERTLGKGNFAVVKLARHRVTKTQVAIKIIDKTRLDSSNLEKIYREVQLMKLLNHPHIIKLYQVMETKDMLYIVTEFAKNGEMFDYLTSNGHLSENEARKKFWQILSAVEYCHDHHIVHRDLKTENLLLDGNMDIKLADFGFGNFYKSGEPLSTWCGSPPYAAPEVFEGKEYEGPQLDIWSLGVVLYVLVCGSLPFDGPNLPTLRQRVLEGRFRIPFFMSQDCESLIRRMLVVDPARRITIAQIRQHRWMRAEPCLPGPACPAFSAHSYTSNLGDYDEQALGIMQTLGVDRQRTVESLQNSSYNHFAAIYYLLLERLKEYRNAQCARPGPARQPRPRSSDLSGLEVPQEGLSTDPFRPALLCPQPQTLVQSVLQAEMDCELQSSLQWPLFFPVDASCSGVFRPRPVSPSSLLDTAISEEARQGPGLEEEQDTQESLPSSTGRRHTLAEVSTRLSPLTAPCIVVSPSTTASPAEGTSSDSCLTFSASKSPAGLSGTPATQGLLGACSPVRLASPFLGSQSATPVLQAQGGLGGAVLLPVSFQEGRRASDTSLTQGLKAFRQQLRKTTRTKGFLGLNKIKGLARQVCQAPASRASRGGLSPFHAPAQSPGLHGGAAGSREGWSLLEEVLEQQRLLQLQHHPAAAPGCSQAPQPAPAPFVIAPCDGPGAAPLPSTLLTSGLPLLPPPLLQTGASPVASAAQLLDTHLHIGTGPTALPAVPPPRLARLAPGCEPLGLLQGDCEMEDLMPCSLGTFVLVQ

| IC50 [1] [nM] | IC50 [2] [nM] | IC50 [3] [nM] | SMILES |
| --- | --- | --- | --- |
| > 500 | > 500 | 10 to 100 | COc1cc(-c2cnc3cc(C4(C#N)CNC4)ccn23)cc(OC(F)F)c1C(=O)NC1CC1 [Cpd 110, 4-[7-(3-cyanoazetidin-3-yl)imidazo[1,2-a]pyridin-3-yl]-N-cyclopropyl-2-(difluoromethoxy)-6-methoxy-benzamide] |
| > 500 | > 500 | 10 to 100 | COc1cc(-c2cnc3cc(C(C)(C)C#N)ccn23)cc2c1C(=O)NC2 [Cpd 111, 2-[3-(7-methoxy-1-oxo-isoindolin-5-yl)imidazo[1,2-a]pyridin-7-yl]-2-methyl-propanenitrile] |
| > 500 | 10 to 100 | 0.01 to 10 | COc1cc(-c2cnn3cc(C4CCOCC4)ccc23)cc(OC(F)F)c1C(=O)NC1CC1 [Cpd 112, N-cyclopropyl-2-(difluoromethoxy)-6-methoxy-4-(6-tetrahydropyran-4-ylpyrazolo[1,5-a]pyridin-3-yl)benzamide] |
| > 500 | > 500 | 10 to 100 | COc1cc(-c2cnc3cc(C4(C(=O)O)CC4)ccn23)cc(OC(F)F)c1C(=O)NC1CC1 [Cpd 114, 1-[3-[4-(cyclopropylcarbamoyl)-3-(difluoromethoxy)-5-methoxy-phenyl]imidazo[1,2-a]pyridin-7-yl]cyclopropanecarboxylic acid] |
| 100 to 500 | 10 to 100 | 0.01 to 10 | COc1cc(-c2cnc3cc(C4(CO)CC4)ccn23)cc(OC(F)F)c1C(=O)NC1CC1 [Cpd 115, N-cyclopropyl-2-(difluoromethoxy)-4-[7-[1-(hydroxymethyl)cyclopropyl]imidazo[1,2-a]pyridin-3-yl]-6-methoxy-benzamide] |
| > 500 | > 500 | 10 to 100 | COc1cc(-c2cnc3cc(C(C)(C)OC)ncn23)cc(OC(F)F)c1C(=O)NC1CC1 [Cpd 118, N-cyclopropyl-2-(difluoromethoxy)-6-methoxy-4-[7-(1-methoxy-1-methyl-ethyl)imidazo[1,2-c]pyrimidin-3-yl]benzamide] |
| > 500 | > 500 | 100 to 500 | COc1cc(-c2cnc3cc(C(C)(C)O)ncn23)cc(OC(F)F)c1C(=O)NC1CC1 [Cpd 119, N-cyclopropyl-2-(difluoromethoxy)-4-[7-(1-hydroxy-1-methyl-ethyl)imidazo[1,2-c]pyrimidin-3-yl]-6-methoxy-benzamide] |
| > 500 | > 500 | 10 to 100 | COc1cc(-c2cnc3cc(C4(C#N)CN(C(C)=O)C4)ccn23)cc(OC(F)F)c1C(=O)NC1CC1 [Cpd 122, 4-[7-(1-acetyl-3-cyano-azetidin-3-yl)imidazo[1,2-a]pyridin-3-yl]-N-cyclopropyl-2-(difluoromethoxy)-6-methoxy-benzamide] |
| > 500 | > 500 | 100 to 500 | CCC(O)(CC)c1ccn2c(-c3cc(OC)c(C(=O)NC4CC4)c(OC(F)F)c3)cnc2c1 [Cpd 124, N-cyclopropyl-2-(difluoromethoxy)-4-[7-(1-ethyl-1-hydroxy-propyl)imidazo[1,2-a]pyridin-3-yl]-6-methoxy-benzamide] |
| > 500 | > 500 | > 500 | COc1cc(-c2cnc3cc(C4(C#N)COC4)ccn23)cnc1C(=O)NCC(F)(F)F [Cpd 125, 5-[7-(3-cyanooxetan-3-yl)imidazo[1,2-a]pyridin-3-yl]-3-methoxy-N-(2,2,2-trifluoroethyl)pyridine-2-carboxamide] |
| > 500 | > 500 | 10 to 100 | CCC(CC)(OC)c1ccn2c(-c3cc(OC)c(C(=O)NC4CC4)c(OC(F)F)c3)cnc2c1 [Cpd 126, N-cyclopropyl-2-(difluoromethoxy)-4-[7-(1-ethyl-1-methoxy-propyl)imidazo[1,2-a]pyridin-3-yl]-6-methoxy-benzamide] |
| > 500 | > 500 | 100 to 500 | COc1cc(-c2cnc3cc(C(C)(C)C#N)ccn23)cnc1C(=O)NCC(F)(F)F [Cpd 127, 5-[7-(1-cyano-1-methyl-ethyl)imidazo[1,2-a]pyridin-3-yl]-3-methoxy-N-(2,2,2-trifluoroethyl)pyridine-2-carboxamide] |

Further lines, the compound ahead of its results:

| SMILES | IC50 [1] [nM] | IC50 [2] [nM] | IC50 [3] [nM] |
| --- | --- | --- | --- |
| COc1cc(-c2cnc3cc(C(C)(C)C#N)ccn23)cc(OC(F)F)c1C(=O)N[C@H]1CCCC[C@@H]1N [Cpd 92, N-[(1S,2S)-2-aminocyclohexyl]-4-[7-(1-cyano-1-methyl-ethyl)imidazo[1,2-a]pyridin-3-yl]-2-(difluoromethoxy)-6-methoxy-benzamide] | > 500 | > 500 | 10 to 100 |
| COc1cc(-c2cnc3cc(C(C)(C)C#N)ccn23)cc(OC(F)F)c1C(=O)N1CC(NC(=O)OC(C)(C)C)C1 [Cpd 94, tert-butyl N-[1-[4-[7-(1-cyano-1-methyl-ethyl)imidazo[1,2-a]pyridin-3-yl]-2-(difluoromethoxy)-6-methoxy-benzoyl]azetidin-3-yl]carbamate] | > 500 | > 500 | > 500 |
| COc1cc(-c2cnc3cc(C(C)(C)C#N)ccn23)cc(OC(F)F)c1C(=O)N1CC(CO)C1 [Cpd 97, 2-[3-[3-(difluoromethoxy)-4-[3-(hydroxymethyl)azetidine-1-carbonyl]-5-methoxy-phenyl]imidazo[1,2-a]pyridin-7-yl]-2-methyl-propanenitrile] | > 500 | > 500 | 10 to 100 |
| COc1cc(-c2cnc3cc(C(C)(C)C#N)ccn23)cc(OC(F)F)c1C(=O)N1CC(OC)C1 [Cpd 98, 2-[3-[3-(difluoromethoxy)-5-methoxy-4-(3-methoxyazetidine-1-carbonyl)phenyl]imidazo[1,2-a]pyridin-7-yl]-2-methyl-propanenitrile] | > 500 | > 500 | 10 to 100 |
| COc1cc(-c2cnc3cc(C(C)(C)C#N)ccn23)cc(OC(F)F)c1C(=O)N1CC2(CN(C)C2)C1 [Cpd 99, 2-[3-[3-(difluoromethoxy)-5-methoxy-4-(6-methyl-2,6-diazaspiro[3.3]heptane-2-carbonyl)phenyl]imidazo[1,2-a]pyridin-7-yl]-2-methyl-propanenitrile] | > 500 | > 500 | 100 to 500 |
| COc1cc(-c2cnc3cc(C(C)(C)C#N)ccn23)cc(OC(F)F)c1C(=O)NC(C1CC1)C(F)(F)F (stereo not drawn) [Cpd 100, 4-[7-(1-cyano-1-methyl-ethyl)imidazo[1,2-a]pyridin-3-yl]-N-(1-cyclopropyl-2,2,2-trifluoro-ethyl)-2-(difluoromethoxy)-6-methoxy-benzamide] | > 500 | > 500 | > 500 |
| COc1cc(-c2cnc3cc(C(C)(C)C#N)ccn23)cc(OC(F)F)c1C(=O)NC(C)C1CC1 (stereo not drawn) [Cpd 101, 4-[7-(1-cyano-1-methyl-ethyl)imidazo[1,2-a]pyridin-3-yl]-N-(1-cyclopropylethyl)-2-(difluoromethoxy)-6-methoxy-benzamide] | > 500 | > 500 | 100 to 500 |
| COc1cc(-c2cnc3cc(C(C)(C)C#N)ccn23)cc(OC(F)F)c1C(=O)NCC1COC1 [Cpd 102, 4-[7-(1-cyano-1-methyl-ethyl)imidazo[1,2-a]pyridin-3-yl]-2-(difluoromethoxy)-6-methoxy-N-(oxetan-3-ylmethyl)benzamide] | > 500 | > 500 | 10 to 100 |
| COc1cc(-c2cnc3cc(C(C)(C)C#N)ccn23)cc(OC(F)F)c1C(=O)N1CC(N)C1 [Cpd 103, 2-[3-[4-(3-aminoazetidine-1-carbonyl)-3-(difluoromethoxy)-5-methoxy-phenyl]imidazo[1,2-a]pyridin-7-yl]-2-methyl-propanenitrile] | > 500 | > 500 | 10 to 100 |
| COc1cc(-c2cnc3cc(C(C)(C)C#N)ccn23)cc(OC(F)F)c1C(=O)N1CCC1C (stereo not drawn) [Cpd 104, 2-[3-[3-(difluoromethoxy)-5-methoxy-4-(2-methylazetidine-1-carbonyl)phenyl]imidazo[1,2-a]pyridin-7-yl]-2-methyl-propanenitrile] | > 500 | > 500 | > 500 |
| COc1cc(-c2cnc3cc(C(C)(C)C#N)ccn23)cc(OC(F)F)c1C(=O)N1CCC1CO (stereo not drawn) [Cpd 105, 2-[3-[3-(difluoromethoxy)-4-[2-(hydroxymethyl)azetidine-1-carbonyl]-5-methoxy-phenyl]imidazo[1,2-a]pyridin-7-yl]-2-methyl-propanenitrile] | > 500 | > 500 | 100 to 500 |
| COc1cc(-c2cnc3cc(C4CCOCC4)ccn23)cc(OC(F)F)c1C(=O)NC1CC1 [Cpd 108, N-cyclopropyl-2-(difluoromethoxy)-6-methoxy-4-(7-tetrahydropyran-4-ylimidazo[1,2-a]pyridin-3-yl)benzamide] | 100 to 500 | 10 to 100 | 0.01 to 10 |
| COc1cc(-c2cnc3cc(C4CCOCC4)ncn23)cc(OC(F)F)c1C(=O)NC1CC1 [Cpd 109, N-cyclopropyl-2-(difluoromethoxy)-6-methoxy-4-(7-tetrahydropyran-4-ylimidazo[1,2-c]pyrimidin-3-yl)benzamide] | > 500 | > 500 | > 500 |
